According to paper PMC8619046, “ABCB1 and ABCG2 Control Brain Accumulation and Intestinal Disposition of the Novel ROS1/TRK/ALK Inhibitor Repotrectinib, While OATP1A/1B, ABCG2, and CYP3A Limit Its Oral Availability” (Pharmaceutics, 2021):
Where “and” joins values, the source holds several entries; their conditions need not be identical. Identical values can stand only once. Like-named read-outs stand apart in the source and are kept apart here.

Experiment: 4-h oral plasma pharmacokinetics and tissue distribution, male wild-type and ABC transporter knockout mice
Assay type: in vivo
Conditions: 10 mg/kg oral; for AUC(0-t) / Kp at 4 h / concentration at 4 h / Cmax / Tmax: FVB, mouse; for AUC(0-t) / Cmax / Tmax: plasma; for AUC(0-t): read-out: AUC0–4h; for Fold change Cliver / Fold change SIC (% of dose) / Fold change ratio (SIC (%)-to-plasma) / Fold change ratio (liver-to-plasma) / Fold change ratio (testis-to-plasma) / Fold increase Cbrain / Fold increase Ctestis / Fold change ratio (brain-to-plasma) / Fold increase AUC0–4h: vs wild-type; for Tmax: median (range)
From the text: Mice with similar average ages (and body weights) were randomly allocated in experimental groups as far as possible. Mice were maintained in a temperature-controlled and specific pathogen-free environment with a 12-h light and 12-h dark cycle and they received a standard diet (Transbreed, SDS Diets, Technilab-BMI, Someren, The Netherlands) and acidified water ad libitum. […] Given the objective main readout (repotrectinib plasma and tissue concentrations as measured by LC-MS/MS), no blinding method was applied.
Repotrectinib was dissolved in dimethyl sulfoxide (DMSO) at a concentration of 50 mg/mL. This stock solution was first diluted 3-fold with ethanol/polysorbate 80 (1/1; v/v), followed by further dilution with a 10 mM hydrochloric acid solution, yielding a dosing solution of 1 mg/mL, freshly prepared on the day of experiment. Final concentrations of the solvents in the administration solution were: 2%, 2%, 2%, and 94% (all v/v) for DMSO, ethanol, polysorbate 80, and 10 mM hydrochloric acid solution, respectively.
To minimize variation in absorption upon oral administration, mice were fasted for 2–3 h before repotrectinib (10 mg/kg body weight) was administered by gavage into the stomach at 10 µL/g body weight, with a blunt-ended needle. Tail vein serial blood samples were collected at 0.125, 0.25, 0.5, 1, 2 and 4 h using heparinized capillary tubes (Sarstedt, Nümbrecht, Germany) for the 8-h experiments. For the 4- and 2-h experiments, blood samplings were performed from the tail vein with the same schedule, but terminated at 2 and 1 h, respectively. Eight, four, or two hours after oral administration, mice were deeply anesthetized with 2–3% isoflurane, followed by cardiac puncture to collect blood in Eppendorf tubes containing heparin as an anticoagulant. Brain, liver, spleen, kidney, lung, small intestine, and testis were rapidly collected after sacrificing the mice by cervical dislocation. The small intestinal contents (SIC) were separated from small intestinal tissue (SI), which was flushed and rinsed with cold saline to remove any residual feces. Brain, liver, spleen, kidney, lung, SI, SIC, and testis were homogenized with 1, 3, 1, 2, 1, 3, 2, and 1 mL of 2% BSA (w/v), respectively. Plasma fraction was isolated from blood by centrifugation at 9000× g for 6 min at 4 °C. All samples were stored at −30 °C until analysis.
A sensitive and specific liquid chromatography-tandem mass spectrometry method using protein precipitation pre-treatment was adopted to quantify the concentration of repotrectinib in DMEM medium, plasma samples and tissue homogenates.
A non-compartmental model using the PKSolver add-in program for Microsoft Excel was adopted to calculate the pharmacokinetic parameters of repotrectinib. Oral availability was assessed by the plasma area under the curve (AUC), calculated using repotrectinib plasma concentration-time curves with the linear trapezoidal rule without extrapolating the infinity. Statistical testing was performed in Graphpad Prism7 (Graphpad Software, La Jolla, CA, USA). All data are presented as geometric means ± SD. Heteroscedastic data were log-transformed before applying statistical analysis. When differences between two groups were compared, the two-sided unpaired Student’s t test was used. One-way analysis of variance (ANOVA) was applied when multiple groups were compared, and the Bonferroni post hoc correction was used to accommodate multiple testing. Differences were considered statistically significant when P < 0.05.

[1] = male Abcb1a/1b;Abcg2−/− mice, 4 h
[2] = male Abcb1a/1b;Abcg2−/− mice, 4 h, 10 mg/kg
[3] = male Abcb1a/1b−/− mice, 4 h, 10 mg/kg
[4] = male, po, 10 mg/kg, male Abcb1a/1b;Abcg2−/− mice, 4 h
[5] = male, po, 10 mg/kg, male Abcb1a/1b−/− mice, 4 h
[6] = male, po, 10 mg/kg, male Abcg2−/− mice, 4 h
[7] = male, po, 10 mg/kg, male wild-type mice, 4 h

C[C@H]1CNC(=O)c2cnn3ccc(nc23)N[C@H](C)c2cc(F)ccc2O1 [repotrectinib]
Small intestinal content recovery, fold decrease (Abcb1a/1b;Abcg2−/− mice vs wild-type): 13.6 fold | Small intestinal content recovery, fold decrease (Abcb1a/1b−/− mice vs wild-type): 4.9 fold | reduction of liver-to-plasma ratio (Abcg2−/− and Abcb1a/1b;Abcg2−/− mice compared to wild-type mice, 4 h): 30–35% | AUC(0-t) (male Abcg2−/− mice, 4 h): 11900 ± 1420 ng·h/mL | Fold change Cliver [1]: 1.37 | Fold change SIC (% of dose) [1]: 0.07 | Fold change ratio (SIC (%)-to-plasma) [1]: 0.03 | Fold change ratio (liver-to-plasma) [1]: 0.69 | Fold change ratio (testis-to-plasma) [1]: 5.6 | Fold increase Cbrain [1]: 29.1 | Fold increase Ctestis [1]: 10.8 | Fold change ratio (brain-to-plasma) [2]: 14 and 14.2 | Fold increase AUC0–4h [2]: 2.0 | Fold change Cliver (male Abcb1a/1b−/− mice, 4 h): 0.84 | Fold change SIC (% of dose) (male Abcb1a/1b−/− mice, 4 h): 0.20 | Fold change ratio (SIC (%)-to-plasma) (male Abcb1a/1b−/− mice, 4 h): 0.21 | Fold change ratio (liver-to-plasma) (male Abcb1a/1b−/− mice, 4 h): 0.85 | Fold change ratio (testis-to-plasma) (male Abcb1a/1b−/− mice, 4 h): 2.42 | Fold increase AUC0–4h (male Abcb1a/1b−/− mice, 4 h): 1.32 | Fold increase Ctestis (male Abcb1a/1b−/− mice, 4 h): 2.45 | Fold change ratio (brain-to-plasma) [3]: 4.1 and 4.13 | Fold increase Cbrain [3]: 4.1 and 4.14 | Fold change Cliver (male Abcg2−/− mice, 4 h): 1.01 | Fold change SIC (% of dose) (male Abcg2−/− mice, 4 h): 0.87 | Fold change ratio (SIC (%)-to-plasma) (male Abcg2−/− mice, 4 h): 0.54 | Fold change ratio (brain-to-plasma) (male Abcg2−/− mice, 4 h): 0.93 | Fold change ratio (liver-to-plasma) (male Abcg2−/− mice, 4 h): 0.65 | Fold change ratio (testis-to-plasma) (male Abcg2−/− mice, 4 h): 0.71 | Fold increase Cbrain (male Abcg2−/− mice, 4 h): 1.41 | Fold increase Ctestis (male Abcg2−/− mice, 4 h): 1.07 | Fold increase AUC0–4h (male Abcg2−/− mice, 4 h, 10 mg/kg): 1.7 | Fold change Cliver (male wild-type mice, 4 h): 1.00 | Fold change SIC (% of dose) (male wild-type mice, 4 h): 1.00 | Fold change ratio (SIC (%)-to-plasma) (male wild-type mice, 4 h): 1.00 | Fold change ratio (brain-to-plasma) (male wild-type mice, 4 h): 1.00 | Fold change ratio (liver-to-plasma) (male wild-type mice, 4 h): 1.00 | Fold change ratio (testis-to-plasma) (male wild-type mice, 4 h): 1.00 | Fold increase AUC0–4h (male wild-type mice, 4 h): 1.00 | Fold increase Cbrain (male wild-type mice, 4 h): 1.00 | Fold increase Ctestis (male wild-type mice, 4 h): 1.00 | Kp at 4 h (male, brain, po, 10 mg/kg, male Abcb1a/1b;Abcg2−/− mice, 4 h, read-out: Brain-to-plasma ratio): 2.13 ± 0.21 | concentration at 4 h (male, brain, po, 10 mg/kg, male Abcb1a/1b;Abcg2−/− mice, 4 h, read-out: Cbrain): 2760 ± 928 ng/g | Kp at 4 h (male, brain, po, 10 mg/kg, male Abcb1a/1b−/− mice, 4 h, read-out: Brain-to-plasma ratio): 0.62 ± 0.17 | concentration at 4 h (male, brain, po, 10 mg/kg, male Abcb1a/1b−/− mice, 4 h, read-out: Cbrain): 394 ± 102 ng/g | Kp at 4 h (male, brain, po, 10 mg/kg, male Abcg2−/− mice, 4 h, read-out: Brain-to-plasma ratio): 0.14 ± 0.03 | concentration at 4 h (male, brain, po, 10 mg/kg, male Abcg2−/− mice, 4 h, read-out: Cbrain): 134 ± 18 ng/g | Kp at 4 h (male, brain, po, 10 mg/kg, male wild-type mice, 4 h, read-out: Brain-to-plasma ratio): 0.15 ± 0.03 | concentration at 4 h (male, brain, po, 10 mg/kg, male wild-type mice, 4 h, read-out: Cbrain): 95.1 ± 23.5 ng/g | concentration at 4 h (male, liver, po, 10 mg/kg, male Abcb1a/1b;Abcg2−/− mice, 4 h, read-out: Cliver): 9090 ± 2750 ng/g | Kp at 4 h (male, liver, po, 10 mg/kg, male Abcb1a/1b;Abcg2−/− mice, 4 h, read-out: Liver-to-plasma ratio): 7.2 ± 1.2 | concentration at 4 h (male, liver, po, 10 mg/kg, male Abcb1a/1b−/− mice, 4 h, read-out: Cliver): 5580 ± 2030 ng/g | Kp at 4 h (male, liver, po, 10 mg/kg, male Abcb1a/1b−/− mice, 4 h, read-out: Liver-to-plasma ratio): 8.9 ± 2.4 | concentration at 4 h (male, liver, po, 10 mg/kg, male Abcg2−/− mice, 4 h, read-out: Cliver): 6690 ± 1210 ng/g | Kp at 4 h (male, liver, po, 10 mg/kg, male Abcg2−/− mice, 4 h, read-out: Liver-to-plasma ratio): 6.8 ± 0.6 | concentration at 4 h (male, liver, po, 10 mg/kg, male wild-type mice, 4 h, read-out: Cliver): 6630 ± 1160 ng/g | Kp at 4 h (male, liver, po, 10 mg/kg, male wild-type mice, 4 h, read-out: Liver-to-plasma ratio): 10.5 ± 1.9 | Cmax [4]: 5230 ± 1240 ng/mL | AUC(0-t) [4]: 14000 ± 3180 ng·h/mL | Cmax [5]: 3630 ± 620 ng/mL | AUC(0-t) [5]: 9200 ± 1640 ng·h/mL | Cmax [6]: 5080 ± 490 ng/mL | Cmax [7]: 3080 ± 1440 ng/mL | AUC(0-t) [7]: 6990 ± 2460 ng·h/mL | Tmax [4]: 60 min | Tmax [5]: 30 min | Tmax [6]: 15 min | Tmax [7]: 30 min | Kp at 4 h (male, small intestinal content, po, 10 mg/kg, male Abcb1a/1b;Abcg2−/− mice, 4 h, read-out: SIC (%)-to-plasma ratio): 0.0003 ± 9e-05 | Kp at 4 h (male, small intestinal content, po, 10 mg/kg, male Abcb1a/1b−/− mice, 4 h, read-out: SIC (%)-to-plasma ratio): 0.00186 ± 0.00084 | Kp at 4 h (male, small intestinal content, po, 10 mg/kg, male Abcg2−/− mice, 4 h, read-out: SIC (%)-to-plasma ratio): 0.00475 ± 0.00154 | Kp at 4 h (male, small intestinal content, po, 10 mg/kg, male wild-type mice, 4 h, read-out: SIC (%)-to-plasma ratio): 0.00879 ± 0.00241 | concentration at 4 h (male, testis, po, 10 mg/kg, male Abcb1a/1b;Abcg2−/− mice, 4 h, read-out: Ctestis): 1670 ± 386 ng/g | Kp at 4 h (male, testis, po, 10 mg/kg, male Abcb1a/1b;Abcg2−/− mice, 4 h, read-out: Testis-to-plasma ratio): 1.35 ± 0.31 | concentration at 4 h (male, testis, po, 10 mg/kg, male Abcb1a/1b−/− mice, 4 h, read-out: Ctestis): 380 ± 122 ng/g | Kp at 4 h (male, testis, po, 10 mg/kg, male Abcb1a/1b−/− mice, 4 h, read-out: Testis-to-plasma ratio): 0.58 ± 0.14 | concentration at 4 h (male, testis, po, 10 mg/kg, male Abcg2−/− mice, 4 h, read-out: Ctestis): 166 ± 27 ng/g | Kp at 4 h (male, testis, po, 10 mg/kg, male Abcg2−/− mice, 4 h, read-out: Testis-to-plasma ratio): 0.17 ± 0.02 | concentration at 4 h (male, testis, po, 10 mg/kg, male wild-type mice, 4 h, read-out: Ctestis): 155 ± 55 ng/g | Kp at 4 h (male, testis, po, 10 mg/kg, male wild-type mice, 4 h, read-out: Testis-to-plasma ratio): 0.24 ± 0.07 | SIC (% of dose) (small intestinal content, male Abcb1a/1b;Abcg2−/− mice, 4 h, 10 mg/kg): 0.4 % of dose and 0.41 ± 0.23 ^(##) % of dose | SIC (% of dose) (small intestinal content, male Abcb1a/1b−/− mice, 4 h, 10 mg/kg): 1.1 % of dose and 1.13 ± 0.40 % of dose | SIC (% of dose) (small intestinal content, male Abcg2−/− mice, 4 h, 10 mg/kg): 4.8 % of dose and 4.84 ± 2.21 % of dose
